A short description of the series: Assaying of tocopherol phosphate by HPLC in the concentrated aqueous solution (state of dissolution). It counts as physicochemical. Conditions: concentrated aqueous solution of Example 1 (3.5% PPG-6-Decyltetradeceth-20, 17.4% 1,2-pentanediol, 8.7% γ-TPNa added, water), UV 290 nm, ambient temperature. The protocol: Method for the Assaying of Tocopherol Phosphate by HPLC
The concentrated solution of γ-TPNa obtained in Example 1 and the compositions prepared in Examples 2 to 5 are assayed for tocopherol phosphate by HPLC according to the following conditions:
Elution gradient:—Eluent A: sodium acetate/acetic acid buffer pH 4.2 • Eluent B=methanol/THF (80/20)
Preparation of the Solutions
Diluent: Eluent A/eluent B (20/80 v/v)
Standard solution for the calibration=solution of γ-TPNa at 0.08 mg/ml of diluent.
Solution for the assaying of the concentrated solution (Ex. 1):
100 mg of the concentrated aqueous solution are withdrawn and diluted in 100 ml of diluent.

Structures are written as SMILES.

`Cc1c(OP(=O)([O-])[O-])cc2c(c1C)OC(C)(CCCC(C)CCCC(C)CCCC(C)C)CC2.[Na+].[Na+]` (stereo not shown) [γ-TPNa, Sodium salt of γ-tocopherol phosphate]: the “Result of the assaying of the γ-TPNa in the concentrated solution (dissolved amount)” value is 8.7 % by weight.

For the origin of these results see patent US8597620B2, “Composition comprising a tocopherol phosphate and preparation process” (LVMH Recherche, priority 2010, dated 2013).
